Biological target: T1, human MRGPRX2 (Homo sapiens, UniProt Q96LB1)
T1 construct: expressed in transfected cells; host or cells: CHO cells, stably transfected (G418 and Hygromycin B selection)
T1 sequence (Q96LB1 1-330): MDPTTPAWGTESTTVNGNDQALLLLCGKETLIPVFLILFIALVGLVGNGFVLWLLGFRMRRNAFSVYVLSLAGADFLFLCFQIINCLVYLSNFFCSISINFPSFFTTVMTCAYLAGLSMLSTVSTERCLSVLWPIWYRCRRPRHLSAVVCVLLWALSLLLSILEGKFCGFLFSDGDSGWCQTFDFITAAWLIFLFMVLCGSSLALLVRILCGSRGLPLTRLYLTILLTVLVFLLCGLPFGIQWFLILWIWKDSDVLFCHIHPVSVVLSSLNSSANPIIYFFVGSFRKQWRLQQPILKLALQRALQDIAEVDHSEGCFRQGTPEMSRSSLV
Assay: MRGPRX2 activity: IP-One Gq HTRF assay in CHO cells, antagonism versus 0.3 uM Cortistatin-14
Format: cell-based
Details: versus 0.3 uM Cortistatin-14 agonist, CHO cells expressing human MRGPRX2, read-out: MRGPRX2 Antagonist Activity
Procedure, shortened: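 Antagonist IC50 was derived from the HTRF IP-1 signal after co-addition of compounds (10 points, top 30 uM, 3-fold steps) and 0.3 μM Cortistatin-14 agonist to human MRGPRX2-expressing CHO cells. Assay buffer contained 50 mM LiCl, pH 8; plates sat 1 h at 37 °C, then 1 h at room temperature.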

IC50	Structure (SMILES)
1000 to 2500 nM	COc1ccc(Oc2c(F)ccc3c2NC(NCc2ncccc2F)=NS3(=O)=O)cc1 [Compound 2-11, 6-fluoro-3-(((3-fluoropyridin-2-yl)methyl)amino)-5-(4-methoxyphenoxy)-4H-benzo[e][1,2,4]thiadiazine 1,1-dioxide]
100 to 500 nM	O=S1(=O)N=C(NCc2ncccc2F)Nc2c1ccc(F)c2C#Cc1ccccc1 [Compound 19-1, 6-fluoro-3-(((3-fluoropyridin-2-yl)methyl)amino)-5-(phenylethynyl)-4H-benzo[e][1,2,4]thiadiazine 1,1-dioxide]
< 100 nM	COc1ccccc1CNC1=NS(=O)(=O)c2ccc(F)c(C(C)c3ccccc3F)c2N1 (centres unmarked) [Compound 7-9, 6-fluoro-5-(1-(2-fluorophenyl)ethyl)-3-((2-methoxybenzyl)amino)-4H-benzo[e][1,2,4]thiadiazine 1,1-dioxide]
< 100 nM	N#Cc1ccc2c(c1Oc1ccccc1F)NC(NCc1ncccc1Cl)=NS2(=O)=O [Compound 3-1, 3-(((3-chloropyridin-2-yl)methyl)amino)-5-(2-fluorophenoxy)-4H-benzo[e][1,2,4]thiadiazine-6-carbonitrile 1,1-dioxide]
1000 to 2500 nM	CC(c1ccc(N2CCOCC2)cc1)c1c(F)ccc2c1NC(NCc1cccc(F)c1)=NS2(=O)=O (centres unmarked) [Compound 22-16, 6-fluoro-3-((3-fluorobenzyl)amino)-5-(1-(4-morpholinophenyl)ethyl)-4H-benzo[e][1,2,4]thiadiazine 1,1-dioxide]
< 100 nM	O=S1(=O)N=C(NCc2ncccc2F)Nc2c1ccc(F)c2Oc1c(Cl)cccc1Cl [Compound 1-9, 5-(2,6-dichlorophenoxy)-6-fluoro-3-(((3-fluoropyridin-2-yl)methyl)amino)-4H-benzo[e][1,2,4]thiadiazine 1,1-dioxide]
100 to 500 nM	O=S1(=O)N=C(NCc2cnccc2C(F)(F)F)Nc2c1cc(F)c(F)c2Cc1ccccc1Cl [Compound 4-17, 5-(2-chlorobenzyl)-6,7-difluoro-3-(((4-(trifluoromethyl)pyridin-3-yl)methyl)amino)-4H-benzo[e][1,2,4]thiadiazine 1,1-dioxide]
< 100 nM	O=S1(=O)N=C(NCc2cnccc2C(F)(F)F)Nc2c(Cc3ccccc3Cl)cccc21 [Compound 12-30, 5-(2-chlorobenzyl)-3-(((4-(trifluoromethyl)pyridin-3-yl)methyl)amino)-4H-benzo[e][1,2,4]thiadiazine 1,1-dioxide]
< 100 nM	C[C@H](c1ccccc1F)c1c(F)ccc2c1NC(NCc1ccc(F)cc1F)=NS2(=O)=O [Compound 24-2, (R)-3-((2,4-difluorobenzyl)amino)-6-fluoro-5-(1-(2-fluorophenyl)ethyl)-4H-benzo[e][1,2,4]thiadiazine 1,1-dioxide]
< 100 nM	N#Cc1ccccc1Oc1c(F)ccc2c1NC(NCc1ncccc1F)=NS2(=O)=O [Compound 1-8, 2-((6-fluoro-3-(((3-fluoropyridin-2-yl)methyl)amino)-1,1-dioxido-4H-benzo[e][1,2,4]thiadiazin-5-yl)oxy)benzonitrile]
100 to 500 nM	O=S1(=O)N=C(NCc2cccc(F)n2)Nc2c1ccc(F)c2Cc1ccccc1Cl [Compound 4-2, 5-(2-chlorobenzyl)-6-fluoro-3-(((6-fluoropyridin-2-yl)methyl)amino)-4H-benzo[e][1,2,4]thiadiazine 1,1-dioxide]
> 2500 nM	O=S1(=O)N=C(NCc2ncccc2F)Nc2c(NCc3ccccc3Cl)cccc21 [Compound 17-1, 5-((2-chlorobenzyl)amino)-3-(((3-fluoropyridin-2-yl)methyl)amino)-4H-benzo[e][1,2,4]thiadiazine 1,1-dioxide]
100 to 500 nM	COc1cccnc1CNC1=NS(=O)(=O)c2cc(F)c(F)c(Oc3ccccc3Cl)c2N1 [Compound 1-7, 5-(2-chlorophenoxy)-6,7-difluoro-3-(((3-methoxypyridin-2-yl)methyl)amino)-4H-benzo[e][1,2,4]thiadiazine 1,1-dioxide]
> 2500 nM	C[C@@H](NC1=NS(=O)(=O)c2ccc(F)c(Oc3ccccc3Cl)c2N1)c1ccccc1F [Compound 2-3, (R)-5-(2-chlorophenoxy)-6-fluoro-3-((1-(2-fluorophenyl)ethyl)amino)-4H-benzo[e][1,2,4]thiadiazine 1,1-dioxide]
< 100 nM	CC(c1cccc(F)c1Cl)c1c(F)ccc2c1NC(NCc1ncccc1F)=NS2(=O)=O (centres unmarked) [Compound 7-1, 5-(1-(2-chloro-3-fluorophenyl)ethyl)-6-fluoro-3-(((3-fluoropyridin-2-yl)methyl)amino)-4H-benzo[e][1,2,4]thiadiazine 1,1-dioxide]
100 to 500 nM	O=S1(=O)N=C(NCc2ncccc2F)Nc2c1ccc(F)c2CCc1ccccc1 [Compound 6-1, 6-fluoro-3-(((3-fluoropyridin-2-yl)methyl)amino)-5-phenethyl-4H-benzo[e][1,2,4]thiadiazine 1,1-dioxide]

IC50	Structure (SMILES)
< 100 nM	Cc1ccc(C(C)c2c(F)ccc3c2NC(NCc2cccc(F)c2)=NS3(=O)=O)o1 (centres unmarked) [Compound 22-10, 6-fluoro-3-((3-fluorobenzyl)amino)-5-(1-(5-methylfuran-2-yl)ethyl)-4H-benzo[e][1,2,4]thiadiazine 1,1-dioxide]
< 100 nM	CC(c1ccccc1F)c1c(F)ccc2c1NC(NCc1ccccc1F)=NS2(=O)=O (centres unmarked) [Compound 7-5, 6-fluoro-3-((2-fluorobenzyl)amino)-5-(1-(2-fluorophenyl)ethyl)-4H-benzo[e][1,2,4]thiadiazine 1,1-dioxide]
100 to 500 nM	O=S1(=O)N=C(NCc2ncccc2F)Nc2c1ccc(F)c2Oc1ccccc1F [Compound 1-15, 6-fluoro-5-(2-fluorophenoxy)-3-(((3-fluoropyridin-2-yl)methyl)amino)-4H-benzo[e][1,2,4]thiadiazine 1,1-dioxide]
< 100 nM	Cc1ccc(CNC2=NS(=O)(=O)c3cccc(Cc4ccccc4Cl)c3N2)c(F)c1 [Compound 12-6, 5-(2-chlorobenzyl)-3-((2-fluoro-4-methylbenzyl)amino)-4H-benzo[e][1,2,4]thiadiazine 1,1-dioxide]
501 to 1000 nM	N#Cc1cccc(Oc2c(F)ccc3c2NC(NCc2ncccc2F)=NS3(=O)=O)c1 [Compound 2-13, 3-((6-fluoro-3-(((3-fluoropyridin-2-yl)methyl)amino)-1,1-dioxido-4H-benzo[e][1,2,4]thiadiazin-5-yl)oxy)benzonitrile]
100 to 500 nM	COc1cc(C)ccc1CNC1=NS(=O)(=O)c2cccc(Cc3ccccc3Cl)c2N1 [Compound 12-15, 5-(2-chlorobenzyl)-3-((2-methoxy-4-methylbenzyl)amino)-4H-benzo[e][1,2,4]thiadiazine 1,1-dioxide]
100 to 500 nM	O=S1(=O)N=C(NCc2cccc3ccccc23)Nc2c1ccc(F)c2Oc1ccccc1Cl [Compound 2-6, 5-(2-chlorophenoxy)-6-fluoro-3-((naphthalen-1-ylmethyl)amino)-4H-benzo[e][1,2,4]thiadiazine 1,1-dioxide]
< 100 nM	CC(c1ccccc1F)c1c(F)ccc2c1NC(NCc1cc(F)ccc1F)=NS2(=O)=O (centres unmarked) [Compound 9-3, 3-((2,5-difluorobenzyl)amino)-6-fluoro-5-(1-(2-fluorophenyl)ethyl)-4H-benzo[e][1,2,4]thiadiazine 1,1-dioxide]
< 100 nM	Cc1cccc(C)c1Cc1cccc2c1NC(NCc1ccccc1F)=NS2(=O)=O [Compound 6-17, 5-(2,6-dimethylbenzyl)-3-((2-fluorobenzyl)amino)-4H-benzo[e][1,2,4]thiadiazine 1,1-dioxide]
< 100 nM	Cc1c(F)cccc1CNC1=NS(=O)(=O)c2ccc(F)c(C(C)c3cccc(F)c3Cl)c2N1 (centres unmarked) [Compound 7-2, 5-(1-(2-chloro-3-fluorophenyl)ethyl)-6-fluoro-3-((3-fluoro-2-methylbenzyl)amino)-4H-benzo[e][1,2,4]thiadiazine 1,1-dioxide]
< 100 nM	Cc1ccc(CNC2=NS(=O)(=O)c3cccc(Cc4ccccc4Cl)c3N2)cc1C [Compound 12-13, 5-(2-chlorobenzyl)-3-((3,4-dimethylbenzyl)amino)-4H-benzo[e][1,2,4]thiadiazine 1,1-dioxide]
100 to 500 nM	O=S1(=O)N=C(NCc2ncccc2F)Nc2c1ccc(F)c2Oc1ccc(Cl)cc1 [Compound 2-9, 5-(4-chlorophenoxy)-6-fluoro-3-(((3-fluoropyridin-2-yl)methyl)amino)-4H-benzo[e][1,2,4]thiadiazine 1,1-dioxide]
< 100 nM	CC(C)(C)c1cccc(Cl)c1Oc1c(F)ccc2c1NC(NCc1ncccc1F)=NS2(=O)=O [Compound 1-36, 5-(2-(tert-butyl)-6-chlorophenoxy)-6-fluoro-3-(((3-fluoropyridin-2-yl)methyl)amino)-4H-benzo[e][1,2,4]thiadiazine 1,1-dioxide]
< 100 nM	CC(c1ccccc1F)c1c(F)ccc2c1NC(NCc1cccc(Cl)c1F)=NS2(=O)=O (centres unmarked) [Compound 9-2, 3-((3-chloro-2-fluorobenzyl)amino)-6-fluoro-5-(1-(2-fluorophenyl)ethyl)-4H-benzo[e][1,2,4]thiadiazine 1,1-dioxide]
< 100 nM	Cc1ccccc1CNC1=NS(=O)(=O)c2cccc(Cc3ccccc3Cl)c2N1 [Compound 12-19, 5-(2-chlorobenzyl)-3-((2-methylbenzyl)amino)-4H-benzo[e][1,2,4]thiadiazine 1,1-dioxide]

Structure (SMILES)	IC50
Cc1c(F)cccc1CNC1=NS(=O)(=O)c2ccc(F)c(C(C)c3ccccc3F)c2N1 (centres unmarked) [Compound 9-6, 6-fluoro-3-((3-fluoro-2-methylbenzyl)amino)-5-(1-(2-fluorophenyl)ethyl)-4H-benzo[e][1,2,4]thiadiazine 1,1-dioxide]	< 100 nM

Source: US20250170141A1, “MRGPRX2 MODULATORS AND RELATED METHODS OF TREATMENT” (Escient Pharmaceuticals, Inc., priority 2023, published 2025)
